Measurements taken from US20080039500A1, “Cerebral Infarction Suppressant” (priority 2004, published 2008).

How the values were obtained:
cerebral infarction [1] = assay: Example 2: concomitant use of histidine and HMT inhibitor, size of infarction after middle cerebral artery occlusion
Description: Twenty-five male Wistar rats weighing about 300 g were divided into 4 groups consisting of histidine 1000 mg/kg administration group, histidine 200 mg/kg+metoprine 10 mg/kg administration group, histidine 500 mg/kg+metoprine 10 mg/kg administration group, and histidine 1000 mg/kg+metoprine 10 mg/kg administration group.
The root of the right middle cerebral artery of these rats was occluded and blood flow was recovered as shown in the Example 1. Then, 200 mg/kg, 500 mg/kg or 1000 mg/kg of histidine was intraperitoneally administered to the rats, and 10 mg/kg of metoprine was further administered to the metoprine administration groups, as shown in the Example 1.
The samples were prepared by treating each rat as shown in the Example 1 and the size of infarction was measured. The obtained size of cerebral infarction was subjected to analysis of variance and the Bonferroni test.

cerebral infarction [2] = assay: Example 1: concomitant use of histidine and H3-receptor blocker, size of infarction after 2 h middle cerebral artery occlusion (TTC staining); type: in vivo, rat
Excerpt: These rats were anesthetized with a gas mixture of 2% halothane, 49% oxygen and 49% laughing gas, and kept under spontaneous breathing. Subsequently, a median incision was made in the neck of the rat placed on its back, and the right common carotid artery was exposed. […] The tip of the nylon thread was placed 18 mm from the bifurcation. After suture of the incision of the skin, the rats were allowed to recover from anesthesia. During surgery, an electronic thermometer was inserted into the temporal muscle, and the body temperature was maintained at 37.0±0.1° C. with a lamp. […] Five minutes before reperfusion of blood flow, the rats were anesthetized again. […] Histidine was first dissolved in physiological saline adjusted to pH 4.0 with hydrochloric acid, and then the pH was resumed to 6.0 with sodium hydroxide. Further, 5 mg/kg of thioperamide was intraperitoneally injected to each thioperamide administration group. After recovery from anesthesia, the rats were allowed to access food and water freely. Twenty-four hours after recovery of blood flow, sodium pentobarbital was intraperitoneally administered to the rats for anesthesia. Subsequently, the brain was perfused with physiological saline, and the rat was decapitated. The brain was quickly dissected, and rinsed in physiological saline. The brain was sliced coronally between the optic chiasm and the caucal edge of the mammillary body at a thickness of 2 mm. […] As a result, triphenyltetrazolium chloride was reduced due to the action of dehydrogenase present in viable cells, and the tissue was stained in dark red. On the other hand, the dead tissue in the infarcted area was not stained. These brain slices were preserved in phosphate-buffered formalin overnight. Then, an investigator who was unaware of histidine administration measured the size of infarction using computer-aided planimetry.

[3] = system: pyramidal neurons in the hippocampal CA-1 region; conditions: administration prior to transient forebrain ischemia, rat; cited from earlier work
neuronal death = conditions: cited from earlier work
liver function = conditions: patients who received the agent; cited from earlier work
[4] = Example 2, histidine 1000 mg/kg i.p. alone after reperfusion, 24 h
[5] = histidine 200 mg/kg i.p. alone, single dose after reperfusion, 24 h
[6] = histidine 500 mg/kg i.p. alone after reperfusion, 24 h
[7] = histidine 1000 mg/kg i.p. alone after reperfusion, 24 h

Question: Which “suppressive effects on cerebral infarction” value (cerebral infarction [1]; 1000 mg/kg of histidine in a single dose after ischemia, without metoprine) does the source give for N[C@@H](Cc1c[nH]cn1)C(=O)O [Histidine, histidine] here?
Answer: not found

Question: What about the “size of cerebral infarction, Cerebral cortex” value (“size … Cerebral cortex” below) (cerebral infarction [1]; [4]) of the same molecule?
Answer: 87.8 ± 42.5 mm^3

Question: What about the “size of cerebral infarction, Striatum” value (cerebral infarction [1]; [4]) of the same molecule?
Answer: 57.2 ± 20.2 mm^3

Question: And the “size of cerebral infarction, Total” value (cerebral infarction [1]; [4])?
Answer: 145.0 ± 59.2 mm^3

Question: What about the “size of cerebral infarction, Striatum” value (cerebral infarction [2]; histidine 200 mg/kg i.p. alone, single dose after reperfusion (2 h MCA occlusion), 24 h after recovery of blood flow) of the same molecule?
Answer: 35.3 ± 21.6 mm^3

Question: What about the “size … Cerebral cortex” value (cerebral infarction [2]; [5]) of the same molecule?
Answer: 106.3 ± 63.0 mm^3

Question: What about the “size of cerebral infarction, Total” value (cerebral infarction [2]; [5]) of the same molecule?
Answer: 141.6 ± 83.1 mm^3

Question: What about the “size … Cerebral cortex” value (cerebral infarction [2]; [6]) of the same molecule?
Answer: 86.0 ± 49.9 mm^3

Question: And the “size of cerebral infarction, Striatum” value (cerebral infarction [2]; [6])?
Answer: 30.5 ± 23.3 mm^3

Question: What about the “size of cerebral infarction, Total” value (cerebral infarction [2]; [6]) of the same molecule?
Answer: 116.5 ± 69.7 mm^3

Question: And the “size … Cerebral cortex” value (cerebral infarction [2]; [7])?
Answer: 114.2 ± 33.9 mm^3

Question: What about the “size of cerebral infarction, Striatum” value (cerebral infarction [2]; [7]) of the same molecule?
Answer: 47.8 ± 16.3 mm^3

Question: And the “size of cerebral infarction, Total” value (cerebral infarction [2]; [7])?
Answer: 162.0 ± 45.8 mm^3

Question: What about the “suppressive effects on cerebral infarction” value (cerebral infarction [2]; histidine alone in a single dose after ischemia (200, 500, 1000 mg/kg)) of the same molecule?
Answer: not found

Question: What about the “programmed death of neurons after transient ischemia” value [3] of the same molecule?
Answer: depressed

Question: And the “neuronal death 7 days after ischemia caused by apoptosis” value (neuronal death; histidine 4 times: shortly, 6, 24 and 48 hours after 15 minutes of transient ischemia, rats)?
Answer: depressed

Question: For CC1=NN(c2ccccc2)C(=O)C1 [edaravone], which “patients with abnormal values in laboratory tests on the liver function” value (liver function) is on record?
Answer: 21.4%

Question: With COc1ccc(CN(CCN(C)C)c2ccccn2)cc1 [mepyramine] as the molecule, how does the “alleviation of nerve cell death by histidine in presence of histamine receptor blocker” value (neuronal death; co-administered with histidine, ranitidine used concomitantly with mepyramine) read?
Answer: slightly suppressed
